Laboratory results reported in publication PMC2717050, “Evaluation of expression and function of the H^+/myo-inositol transporter HMIT” (BMC Cell Biology, 2009).

Columns and labels:
[1] = molecular target: T1, HMIT triple mutant (H+/myo-inositol transporter) (Rattus norvegicus, UniProt Q921A2); assay: [3H]-myo-inositol uptake in HEK293T cells; assay type: cell-based; details: pH 6.0; 37 °C pre-incubation 10 min; 2 min uptake; non-selective inhibitor
T1 construct: gene Slc2a13; stop codon deleted, C-terminal V5-His; pcDNA3.1/V5-His-TOPO; transient in HEK293/HEK293T cells
T1 sequence (Q921A2 1-637): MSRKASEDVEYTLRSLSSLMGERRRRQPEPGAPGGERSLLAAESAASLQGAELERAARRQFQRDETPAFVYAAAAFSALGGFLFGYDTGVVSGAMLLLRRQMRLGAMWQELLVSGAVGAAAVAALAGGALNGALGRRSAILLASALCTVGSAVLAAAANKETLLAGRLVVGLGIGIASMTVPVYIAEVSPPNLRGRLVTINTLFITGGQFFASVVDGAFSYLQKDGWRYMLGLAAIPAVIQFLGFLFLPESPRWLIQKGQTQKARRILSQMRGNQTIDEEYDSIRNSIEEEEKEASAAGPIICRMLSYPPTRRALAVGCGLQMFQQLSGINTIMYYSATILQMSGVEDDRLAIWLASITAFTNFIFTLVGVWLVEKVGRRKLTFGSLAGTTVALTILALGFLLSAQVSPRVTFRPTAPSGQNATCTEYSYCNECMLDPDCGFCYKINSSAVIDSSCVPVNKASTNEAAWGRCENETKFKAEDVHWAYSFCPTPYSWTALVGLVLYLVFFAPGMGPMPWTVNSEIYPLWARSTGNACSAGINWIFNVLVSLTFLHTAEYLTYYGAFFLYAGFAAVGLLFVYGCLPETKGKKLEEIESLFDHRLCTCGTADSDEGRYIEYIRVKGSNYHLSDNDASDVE

[2] = molecular target: T1, HMIT triple mutant (H+/myo-inositol transporter); assay: whole-cell patch-clamp, inositol-evoked inward current; assay type: cell-based; details: extracellular pH 5.2; room temperature; Hill slope 1.0; transiently transfected HEK293/HEK293T cells

Row | % inhibition at 1 mM [1] | EC50 [2] | SMILES
1 | 53 ± 1.4% |  | O=C(CCc1ccc(O)cc1)c1c(O)cc(O)cc1O[C@@H]1O[C@H](CO)[C@@H](O)[C@H](O)[C@H]1O [phloridzin]
2 |  | 2700 µM | O[C@H]1[C@H](O)[C@@H](O)[C@H](O)[C@@H](O)[C@H]1O [myo-inositol]
